# Where “and” joins values, the source holds several entries; their conditions need not be identical. Identical values can stand only once. Inconclusive results and toxic doses are left out. Residues, ends and D or L forms follow the SMILES beside them. *: point of attachment. Cbz = O=C(OCc1ccccc1)*; Bn = c1ccc(C*)cc1
# Test system: BDF1 mice, P388 leukemia ip, median survival T/C
# Assay: NCI In Vivo Anticancer Drug Screen. Data for tumor model P388 Leukemia (intraperitoneal) in B6D2F1 (BDF1) mice
# Conditions: endpoint: median survival time, higher = longer survival
# Procedure, shortened: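 Read-out is survival of treated animals expressed relative to the vehicle group, as a T/C ratio.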
# [1] = dose: 40.0 mg/kg/injection, schedule: Q01DX009 (ip), vehicle: saline with Tween-80
# [2] = dose: 50.0 mg/kg/injection, schedule: Q01DX009 (ip), vehicle: saline with Tween-80
# [3] = dose: 100.0 mg/kg/injection, schedule: Q01DX009 (ip), vehicle: saline with Tween-80
# [4] = dose: 200.0 mg/kg/injection, schedule: Q01DX009 (ip), vehicle: saline with Tween-80
# [5] = dose: 65.0 mg/kg/injection, schedule: Q04DX003 (ip), vehicle: Klucel (hydroxypropylcellulose) (HPC)
# [6] = dose: 100.0 mg/kg/injection, schedule: Q04DX003 (ip), vehicle: Klucel (hydroxypropylcellulose) (HPC)
# [7] = dose: 150.0 mg/kg/injection, schedule: Q04DX003 (ip), vehicle: Klucel (hydroxypropylcellulose) (HPC)
# [8] = dose: 200.0 mg/kg/injection, schedule: Q04DX003 (ip), vehicle: saline with Tween-80
# [9] = dose: 25.0 mg/kg/injection, schedule: Q01DX009 (ip), vehicle: saline with Tween-80
# [10] = dose: 200.0 mg/kg/injection, schedule: Q04DX003 (ip), vehicle: Klucel (hydroxypropylcellulose) (HPC)
# [11] = dose: 400.0 mg/kg/injection, schedule: Q04DX003 (ip), vehicle: Klucel (hydroxypropylcellulose) (HPC)
compound,measurement,setting,value
COc1cc2cc3c4cc(OC)c(OC)cc4cc[n+]3cc2cc1OC,T/C,"dose: 5.0 mg/kg/injection, schedule: Q01DX009 (ip), vehicle: saline with Tween-80",109 % of control
same,T/C,"dose: 10.0 mg/kg/injection, schedule: Q01DX009 (ip), vehicle: saline with Tween-80",118 % of control
same,T/C,[1],159 % of control
same,T/C,"dose: 40.0 mg/kg/injection, schedule: Q04DX003 (ip), vehicle: saline",163 % of control
same,T/C,"dose: 80.0 mg/kg/injection, schedule: Q04DX003 (ip), vehicle: saline",174 % of control
same,T/C,"dose: 160.0 mg/kg/injection, schedule: Q01DX009 (ip), vehicle: saline with Tween-80",154 % of control
same,T/C,"dose: 160.0 mg/kg/injection, schedule: Q04DX003 (ip), vehicle: saline with Tween-80",154 % of control
same,T/C,"dose: 160.0 mg/kg/injection, schedule: Q04DX003 (ip), vehicle: saline",166 % of control
same,T/C,"dose: 320.0 mg/kg/injection, schedule: Q04DX003 (ip), vehicle: saline with Tween-80",122 % of control
same,T/C,"dose: 320.0 mg/kg/injection, schedule: Q04DX003 (ip), vehicle: saline",120 % of control
O=[N+]([O-])c1ccc(/C=C\S(=O)(=O)OCCCl)cc1,T/C,"dose: 3.12 mg/kg/injection, schedule: Q01DX005 (ip), vehicle: Klucel (hydroxypropylcellulose) (HPC)",115 % of control
same,T/C,"dose: 6.25 mg/kg/injection, schedule: Q01DX005 (ip), vehicle: Klucel (hydroxypropylcellulose) (HPC)",99 % of control
same,T/C,"dose: 12.5 mg/kg/injection, schedule: Q01DX005 (ip), vehicle: Klucel (hydroxypropylcellulose) (HPC)",114 % of control
CC1(C)CCC(C)(C)c2c1ccc(O)c2Sc1c(O)ccc2c1C(C)(C)CCC2(C)C,T/C,[2],97 % of control
same,T/C,[3],97 % of control and 119 % of control
same,T/C,[4],102 % of control and 104 % of control
same,T/C,"dose: 400.0 mg/kg/injection, schedule: Q01DX009 (ip), vehicle: saline with Tween-80",93 % of control
CC(=O)OC(C)C1C2=C(C(=O)CC1(C)O)C(=O)c1c(ccc(-c3ccc4c(c3O)C(=O)C3=C(C4=O)C(C(C)OC(C)=O)C(C)(O)CC3=O)c1O)C2=O (stereo unspecified),T/C,"dose: 6.25 mg/kg/injection, schedule: Q01DX009 (ip), vehicle: saline with Tween-80",122 % of control
COc1cccc(/C=N/NC(=S)NC2CC3CCC2C3)c1O (stereo unspecified),T/C,[2],100 % of control
same,T/C,[3],95 % of control
same,T/C,[4],103 % of control
Cc1ccc(S(=O)(=O)N(CCC(=N)N)C(C)C)cc1,T/C,"dose: 12.5 mg/kg/injection, schedule: Q01DX009 (ip), vehicle: saline",95 % of control
same,T/C,"dose: 25.0 mg/kg/injection, schedule: Q01DX009 (ip), vehicle: saline",90 % of control
same,T/C,"dose: 25.0 mg/kg/injection, schedule: Q04DX003 (ip), vehicle: saline",104 % of control
same,T/C,"dose: 50.0 mg/kg/injection, schedule: Q01DX009 (ip), vehicle: saline",105 % of control
same,T/C,"dose: 50.0 mg/kg/injection, schedule: Q04DX003 (ip), vehicle: saline",100 % of control
CC1CN1P(=S)(N1CCCC1)N1CC1C (stereo unspecified),T/C,"dose: 17.8 mg/kg/injection, schedule: Q01DX009 (ip), vehicle: saline with Tween-80",112 % of control
same,T/C,"dose: 26.6 mg/kg/injection, schedule: Q01DX009 (ip), vehicle: saline with Tween-80",114 % of control
same,T/C,[1],168 % of control
same,T/C,[2],150 % of control
same,T/C,"dose: 60.0 mg/kg/injection, schedule: Q01DX009 (ip), vehicle: saline with Tween-80",214 % of control
same,T/C,[3],170 % of control
Cc1cc(C)c(-c2cc(O)c(C)cc2O)c(C)c1,T/C,"dose: 0.39 mg/kg/injection, schedule: Q04DX003 (ip), vehicle: other",103 % of control
same,T/C,"dose: 0.78 mg/kg/injection, schedule: Q04DX003 (ip), vehicle: other",108 % of control
same,T/C,"dose: 1.56 mg/kg/injection, schedule: Q04DX003 (ip), vehicle: other",104 % of control
same,T/C,"dose: 3.12 mg/kg/injection, schedule: Q04DX003 (ip), vehicle: other",90 % of control and 108 % of control
same,T/C,"dose: 6.25 mg/kg/injection, schedule: Q04DX003 (ip), vehicle: other",88 % of control and 100 % of control
same,T/C,"dose: 12.5 mg/kg/injection, schedule: Q01DX009 (ip), vehicle: other",97 % of control
same,T/C,"dose: 12.5 mg/kg/injection, schedule: Q04DX003 (ip), vehicle: other",108 % of control and 109 % of control
same,T/C,"dose: 25.0 mg/kg/injection, schedule: Q01DX009 (ip), vehicle: other",118 % of control
same,T/C,"dose: 25.0 mg/kg/injection, schedule: Q04DX003 (ip), vehicle: other",92 % of control
same,T/C,"dose: 25.0 mg/kg/injection, schedule: Q04DX003 (ip), vehicle: saline with Tween-80",100 % of control
same,T/C,[5],105 % of control
same,T/C,"dose: 100.0 mg/kg/injection, schedule: Q01DX009 (ip), vehicle: other",102 % of control
same,T/C,[6],114 % of control
same,T/C,[7],109 % of control
same,T/C,[8],93 % of control
Cc1cc2nc(Oc3ccccc3)nc(=O)n2c(C)n1,T/C,"dose: 12.5 mg/kg/injection, schedule: Q01DX009 (ip), vehicle: saline with Tween-80",109 % of control
same,T/C,[9],114 % of control
same,T/C,[2],97 % of control
COc1ccc(/C=C/c2ccc3ccccc3[n+]2C)c(OC)c1OC,T/C,"dose: 5.0 mg/kg/injection, schedule: Q01DX009 (ip), vehicle: Klucel (hydroxypropylcellulose) (HPC)",109 % of control
C/C(=N\Nc1nc2ccccc2o1)c1ccncc1,T/C,[10],104 % of control
same,T/C,[11],86 % of control
O=[N+]([O-])c1ccc(N2CCCC2)c2c1no[n+]2[O-],T/C,"dose: 50.0 mg/kg/injection, schedule: Q04DX003 (ip), vehicle: saline with Tween-80",101 % of control
same,T/C,"dose: 100.0 mg/kg/injection, schedule: Q04DX003 (ip), vehicle: saline with Tween-80",101 % of control
same,T/C,[8],108 % of control
O=[N+]([O-])c1cccc(Oc2ncccc2[N+](=O)[O-])c1,T/C,[5],118 % of control
same,T/C,[6],109 % of control
same,T/C,[7],109 % of control
same,T/C,[10],105 % of control
same,T/C,[11],115 % of control
O=C(O)C(O)C(O)C(=O)O (stereo unspecified),T/C,"dose: 100.0 mg/kg/injection, schedule: Q01DX009 (ip), vehicle: saline",100 % of control
same,T/C,"dose: 100.0 mg/kg/injection, schedule: Q04DX003 (ip), vehicle: saline",91 % of control
same,T/C,"dose: 200.0 mg/kg/injection, schedule: Q01DX009 (ip), vehicle: saline",110 % of control
same,T/C,"dose: 200.0 mg/kg/injection, schedule: Q04DX003 (ip), vehicle: saline",100 % of control
same,T/C,"dose: 400.0 mg/kg/injection, schedule: Q01DX009 (ip), vehicle: saline",100 % of control
same,T/C,"dose: 400.0 mg/kg/injection, schedule: Q04DX003 (ip), vehicle: saline",104 % of control
O=C1C=CC(=Nc2ccc3c(c2)C(Br)c2ccccc2-3)O1 (stereo unspecified),T/C,"dose: 2.25 mg/kg/injection, schedule: Q01DX009 (ip), vehicle: saline",100 % of control
same,T/C,"dose: 4.5 mg/kg/injection, schedule: Q01DX009 (ip), vehicle: saline",100 % of control
same,T/C,"dose: 9.0 mg/kg/injection, schedule: Q01DX009 (ip), vehicle: saline",100 % of control
same,T/C,"dose: 13.0 mg/kg/injection, schedule: Q01DX009 (ip), vehicle: saline",105 % of control
same,T/C,"dose: 20.0 mg/kg/injection, schedule: Q01DX009 (ip), vehicle: saline",100 % of control
same,T/C,"dose: 30.0 mg/kg/injection, schedule: Q01DX009 (ip), vehicle: saline",120 % of control
same,T/C,"dose: 95.0 mg/kg/injection, schedule: Q04DX003 (ip), vehicle: saline",109 % of control
same,T/C,"dose: 145.0 mg/kg/injection, schedule: Q04DX003 (ip), vehicle: saline",118 % of control
CC(=O)OCc1ccc(Cl)cc1,T/C,[2],116 % of control
same,T/C,[3],112 % of control
O=C(O)c1ccccc1P12(OC(=O)c3ccccc31)OC(=O)c1ccccc12,T/C,[9],99 % of control
same,T/C,[2],99 % of control
same,T/C,[3],90 % of control
O=C(NC(CSCc1ccccc1)C(=O)NC(Cc1ccc(O)cc1)C(=O)O)OCc1ccccc1 (stereo unspecified) (Cbz-Cys(Bn)-Tyr-OH; configuration not given here),T/C,"dose: 100.0 mg/kg/injection, schedule: Q01DX009 (ip), vehicle: gum acacia",95 % of control
same,T/C,"dose: 100.0 mg/kg/injection, schedule: Q04DX003 (ip), vehicle: gum acacia",88 % of control
same,T/C,"dose: 200.0 mg/kg/injection, schedule: Q01DX009 (ip), vehicle: gum acacia",95 % of control
same,T/C,"dose: 200.0 mg/kg/injection, schedule: Q04DX003 (ip), vehicle: gum acacia",107 % of control
same,T/C,"dose: 400.0 mg/kg/injection, schedule: Q01DX009 (ip), vehicle: gum acacia",100 % of control
same,T/C,"dose: 400.0 mg/kg/injection, schedule: Q04DX003 (ip), vehicle: gum acacia",92 % of control
